pIC50: −log10 of the molar value.

By pIC50 is commonly meant the negative decadic logarithm of the IC50, by convention in mol/L.

In one test the target is human orexin receptor 1 (Homo sapiens (Human), UniProt O43613). Briefly: Orexin antagonist activity, intracellular calcium FLIPR assay, RBL-2H3 cells expressing human orexin receptor 1. The settings on record: RBL-2H3 cells stably expressing human orexin receptor 1; orexin-A at approx. 80% maximal response; compound added 15 minutes before; read-out: Human Orexin1R IC50. The test is classed as cell-based.
Chain of human orexin receptor 1 (O43613 whole entry): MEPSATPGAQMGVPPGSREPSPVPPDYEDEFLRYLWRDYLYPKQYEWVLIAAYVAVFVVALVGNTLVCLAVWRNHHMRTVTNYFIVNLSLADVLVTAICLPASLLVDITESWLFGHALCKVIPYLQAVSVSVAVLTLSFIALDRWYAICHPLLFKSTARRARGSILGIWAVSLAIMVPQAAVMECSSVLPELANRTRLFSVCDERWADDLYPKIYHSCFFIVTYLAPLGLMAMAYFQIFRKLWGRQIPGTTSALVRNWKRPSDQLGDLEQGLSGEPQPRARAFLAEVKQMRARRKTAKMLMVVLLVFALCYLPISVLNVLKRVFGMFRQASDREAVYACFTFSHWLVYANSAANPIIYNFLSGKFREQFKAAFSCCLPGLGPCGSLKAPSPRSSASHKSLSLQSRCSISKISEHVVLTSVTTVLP

In a further test the target is human orexin receptor 2 (Homo sapiens (Human), UniProt O43614). Briefly: Orexin antagonist activity, intracellular calcium FLIPR assay, RBL-2H3 cells expressing human orexin receptor 2. The test is classed as cell-based. The note with it: RBL-2H3 cells stably expressing human orexin receptor 2; orexin-A at approx. 80% maximal response; compound added 15 minutes before; read-out: Human Orexin2R IC50. (In general: Calcium assays in cells follow changes in intracellular calcium, usually with a dye or a luminescent sensor.)
Chain of human orexin receptor 2 (O43614 whole entry): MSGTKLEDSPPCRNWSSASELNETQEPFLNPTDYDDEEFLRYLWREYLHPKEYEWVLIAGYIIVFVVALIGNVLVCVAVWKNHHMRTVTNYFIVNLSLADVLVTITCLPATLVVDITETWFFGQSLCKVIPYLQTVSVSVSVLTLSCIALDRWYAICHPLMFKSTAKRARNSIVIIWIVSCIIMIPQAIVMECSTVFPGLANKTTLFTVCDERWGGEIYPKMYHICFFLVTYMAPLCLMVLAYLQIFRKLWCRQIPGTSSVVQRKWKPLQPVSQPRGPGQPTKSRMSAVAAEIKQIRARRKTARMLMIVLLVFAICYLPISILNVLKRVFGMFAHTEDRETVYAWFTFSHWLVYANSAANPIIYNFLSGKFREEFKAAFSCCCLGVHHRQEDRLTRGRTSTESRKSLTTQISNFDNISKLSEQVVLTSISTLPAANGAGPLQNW

For the compound `O=C(N[C@H]1CCC[C@@H]1Nc1ccc(C(F)(F)F)cn1)c1cc(F)cc(F)c1-n1nccn1` [Example 99, 3,5-Difluoro-2-(2H-1,2,3-triazol-2-yl)-N-[(1S,2S)-2-{[5-(trifluoromethyl)pyridin-2-yl]amino}cyclopentyl]benzamide], the pIC50 was 6.82 at human orexin receptor 1 and < 5.00 on human orexin receptor 2.

Turning to `CCOc1ccc(C)nc1C(=O)N[C@H]1CCC[C@@H]1Nc1cnc(C(F)(F)F)cn1` [Example 30, 3-Ethoxy-6-methyl-N-[(1S,2S)-2-{[5-(trifluoromethyl)pyrazin-2-yl]amino}cyclopentyl]pyridine-2-carboxamide], the pIC50 is 6.43 on human orexin receptor 1 and < 5.00 on human orexin receptor 2.

Regarding `O=C(N[C@H]1CCC[C@@H]1Nc1cnc(C(F)(F)F)cn1)c1c(F)cccc1F` [Example 33, 2,6-Difluoro-N-[(1S,2S)-2-{[5-(trifluoromethyl)pyrazin-2-yl]amino}cyclopentyl]benzamide], the pIC50 on human orexin receptor 1 was 6.05; on human orexin receptor 2, < 5.00.

`CCc1cnc(N[C@H]2CCC[C@@H]2NC(=O)c2ccccc2-n2nccn2)cn1` [Example 114, N-[(1S,2S)-2-[(5-Ethylpyrazin-2-yl)amino]cyclopentyl]-2-(2H-1,2,3-triazol-2-yl)benzamide]: the results for the pIC50 on human orexin receptor 1 and at human orexin receptor 2 were 6.00 and < 5.00, respectively.

For `O=C(N[C@H]1CCC[C@@H]1Nc1cnc(C(F)(F)F)cn1)c1c(-n2nccn2)ccc(F)c1F` [Example 56, 2,3-Difluoro-6-(2H-1,2,3-triazol-2-yl)-N-[(1S,2S)-2-{[5-(trifluoromethyl)pyrazin-2-yl]amino}cyclopentyl]benzamide], the pIC50 on human orexin receptor 1 was 6.78; at human orexin receptor 2 it was < 5.00.

In the case of `CCc1nc(C(F)(F)F)cnc1N[C@H]1CCC[C@@H]1NC(=O)c1ncccc1-n1nccn1` [Example 125, N-[(1S,2S)-2-{[3-Ethyl-5-(trifluoromethyl)pyrazin-2-yl]amino}cyclopentyl]-3-(2H-1,2,3-triazol-2-yl)pyridine-2-carboxamide], the pIC50 was 7.85 on human orexin receptor 1 and < 5.00 at human orexin receptor 2.

As for `O=C(N[C@H]1CCC[C@@H]1Nc1ccc(OC(F)(F)F)cn1)c1ccccc1-n1nccn1` [Example 115, 2-(2H-1,2,3-Triazol-2-yl)-N-[(1S,2S)-2-{[5-(trifluoromethoxy)pyridin-2-yl]amino}cyclopentyl]benzamide], the pIC50 at human orexin receptor 1 was 6.76; at human orexin receptor 2, < 5.00.

On to `Cc1noc(-c2ccccc2C(=O)N[C@H]2CCC[C@@H]2Nc2cnc(C(F)(F)F)cn2)n1` [Example 15, 2-(3-Methyl-1,2,4-oxadiazol-5-yl)-N-[(1S,2S)-2-{[5-(trifluoromethyl)pyrazin-2-yl]amino}cyclopentyl]benzamide], for which the pIC50 was 7.31 at human orexin receptor 1 and < 5.00 on human orexin receptor 2.

In the case of `O=C(N[C@H]1CCC[C@@H]1Nc1ncc(C(F)(F)F)cc1Cl)c1ccccc1-n1nccn1` [Example 106, N-[(1S,2S)-2-{[3-Chloro-5-(trifluoromethyl)pyridin-2-yl]amino}cyclopentyl]-2-(2H-1,2,3-triazol-2-yl)benzamide], the pIC50 was 7.54 on human orexin receptor 1 and < 5.00 on human orexin receptor 2.

`O=C(N[C@H]1CCC[C@@H]1Nc1cnc(C(F)(F)F)cn1)c1c(F)cccc1-n1nccn1` [Example 32, 2-Fluoro-6-(2H-1,2,3-triazol-2-yl)-N-[(1S,2S)-2-{[5-(trifluoromethyl)pyrazin-2-yl]amino}cyclopentyl]benzamide]: the pIC50 is 7.49 at human orexin receptor 1 and < 5.00 at human orexin receptor 2.

For `COc1cccc(OC)c1C(=O)N[C@H]1CCC[C@@H]1Nc1ccc(C(F)(F)F)cn1` [Example 1, 2,6-Dimethoxy-N-[(1S,2S)-2-{[5-(trifluoromethyl)pyridin-2-yl]amino}cyclopentyl]benzamide], the pIC50 on human orexin receptor 1 is 6.62; at human orexin receptor 2, < 5.00.

Regarding `Cc1noc(-c2ccccc2C(=O)N[C@H]2CCC[C@]2(C)Nc2cnc(C(F)(F)F)cn2)n1` [Example 145, 2-(3-Methyl-1,2,4-oxadiazol-5-yl)-N-[(1S,2S)-2-methyl-2-{[5-(trifluoromethyl)pyrazin-2-yl]amino}cyclopentyl]benzamide], the negative logarithm of the IC50 (pIC50) is 7.96 at human orexin receptor 1 and < 5.00 on human orexin receptor 2.

Source of the values: patent US9156829B2, “Cycloalkyl and heterocycloalkyl compounds as orexin receptor antagonists” (Takeda Pharmaceutical Company Limited, priority 2014, dated 2015).
